The text below walks through data of US9527869B2, “Indolizine derivatives as phoshoinositide 3-kinases inhibitors” (CHIESI FARMACEUTICI S.P.A., priority 2014, dated 2016).

Common to all, as to type: biochemical
The target in one experiment is T1, PI3Kα (Homo sapiens, UniProt P42336).
T1 construct: purchased Millipore Ltd (Billerica, Mass.)
Description: In vitro determination of the PI3K enzyme inhibitory activity in the cell free assay (ADP-Glo Kinase Assay), PI3Kα. To be noted: ATP 50 μM, read-out: PI3K alpha inhibition. The method, boiled down:
(§1)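 IC50 values came from four-parameter logistic fitting of ADP-Glo luminescence after 60 min kinase reactions at room temperature. ATP (final) was set per isoform: α 50 μM, β 100 μM, γ 30 μM, δ 80 μM. Substrates were phosphatidylinositol and phosphatidylserine (50 μM in 2× Tris pH 7.5 buffer), with human recombinant enzymes.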

The target of a further experiment is T2, PI3Kβ (Homo sapiens, UniProt P42338).
T2 construct: purchased Millipore Ltd (Billerica, Mass.)
T2 sequence (P42338 whole entry): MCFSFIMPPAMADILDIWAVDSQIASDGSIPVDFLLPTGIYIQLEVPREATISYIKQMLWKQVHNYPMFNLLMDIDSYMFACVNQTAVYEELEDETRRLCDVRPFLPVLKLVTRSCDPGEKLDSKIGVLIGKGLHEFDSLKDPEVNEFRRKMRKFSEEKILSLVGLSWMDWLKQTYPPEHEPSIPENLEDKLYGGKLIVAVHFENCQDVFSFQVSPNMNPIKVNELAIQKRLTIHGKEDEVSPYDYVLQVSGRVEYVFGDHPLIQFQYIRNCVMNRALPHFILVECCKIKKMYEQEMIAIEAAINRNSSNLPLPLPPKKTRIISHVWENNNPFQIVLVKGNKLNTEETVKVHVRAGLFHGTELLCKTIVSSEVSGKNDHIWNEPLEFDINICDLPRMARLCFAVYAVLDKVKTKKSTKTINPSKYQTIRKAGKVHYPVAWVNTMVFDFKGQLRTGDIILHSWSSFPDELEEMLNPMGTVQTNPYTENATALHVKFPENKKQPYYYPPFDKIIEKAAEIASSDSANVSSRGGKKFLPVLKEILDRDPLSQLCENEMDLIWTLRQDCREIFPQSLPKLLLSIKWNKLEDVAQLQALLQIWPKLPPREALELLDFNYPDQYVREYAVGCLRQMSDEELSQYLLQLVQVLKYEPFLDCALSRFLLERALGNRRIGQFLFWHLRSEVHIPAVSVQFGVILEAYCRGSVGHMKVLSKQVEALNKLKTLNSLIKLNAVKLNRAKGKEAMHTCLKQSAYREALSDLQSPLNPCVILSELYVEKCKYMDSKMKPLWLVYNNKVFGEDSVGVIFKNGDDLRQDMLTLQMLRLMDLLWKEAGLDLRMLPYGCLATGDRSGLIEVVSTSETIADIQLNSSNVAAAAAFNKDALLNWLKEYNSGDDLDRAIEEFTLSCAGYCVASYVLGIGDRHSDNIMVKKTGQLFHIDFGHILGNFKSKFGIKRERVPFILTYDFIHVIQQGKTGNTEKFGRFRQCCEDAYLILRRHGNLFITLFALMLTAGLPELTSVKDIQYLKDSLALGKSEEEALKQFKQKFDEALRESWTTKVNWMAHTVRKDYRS
T2 sequence (P27986 whole entry partner): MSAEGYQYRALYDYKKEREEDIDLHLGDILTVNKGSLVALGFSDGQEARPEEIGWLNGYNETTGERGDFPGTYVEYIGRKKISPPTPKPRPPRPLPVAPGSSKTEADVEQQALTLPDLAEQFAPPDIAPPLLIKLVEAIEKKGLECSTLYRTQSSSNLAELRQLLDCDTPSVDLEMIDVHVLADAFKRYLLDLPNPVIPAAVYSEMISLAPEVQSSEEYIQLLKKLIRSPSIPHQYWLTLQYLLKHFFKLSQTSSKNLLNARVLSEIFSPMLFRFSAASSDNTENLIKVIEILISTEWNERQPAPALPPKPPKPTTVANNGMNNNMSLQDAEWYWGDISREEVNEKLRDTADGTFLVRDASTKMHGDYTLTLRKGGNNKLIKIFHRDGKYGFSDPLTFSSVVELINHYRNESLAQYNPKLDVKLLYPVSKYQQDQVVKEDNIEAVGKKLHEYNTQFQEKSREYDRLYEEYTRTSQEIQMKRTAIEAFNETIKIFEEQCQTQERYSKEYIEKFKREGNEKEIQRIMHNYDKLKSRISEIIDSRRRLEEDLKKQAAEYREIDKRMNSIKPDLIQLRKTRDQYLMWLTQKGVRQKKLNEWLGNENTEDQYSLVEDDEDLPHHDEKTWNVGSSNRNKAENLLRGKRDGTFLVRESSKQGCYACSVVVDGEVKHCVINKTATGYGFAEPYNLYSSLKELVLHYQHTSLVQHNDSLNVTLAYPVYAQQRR
Put plainly: In vitro determination of the PI3K enzyme inhibitory activity in the cell free assay (ADP-Glo Kinase Assay), PI3Kβ. The following applies: ATP 100 μM, read-out: PI3K beta inhibition. The method, boiled down: as §1

Another experiment has as its target T3, PI3Kγ (Homo sapiens, UniProt P48736).
T3 construct: purchased Millipore Ltd (Billerica, Mass.)
Put plainly: In vitro determination of the PI3K enzyme inhibitory activity in the cell free assay (ADP-Glo Kinase Assay), PI3Kγ. To be noted: ATP 30 μM, read-out: PI3K gamma inhibition. The method, boiled down:
as §1
(In general: ADP-Glo first removes unused ATP, then detects ADP through luciferase.)

The target of another experiment is T4, PI3Kδ (Homo sapiens, UniProt O00329).
T4 construct: purchased Millipore Ltd (Billerica, Mass.)
T4 sequence (O00329 whole entry): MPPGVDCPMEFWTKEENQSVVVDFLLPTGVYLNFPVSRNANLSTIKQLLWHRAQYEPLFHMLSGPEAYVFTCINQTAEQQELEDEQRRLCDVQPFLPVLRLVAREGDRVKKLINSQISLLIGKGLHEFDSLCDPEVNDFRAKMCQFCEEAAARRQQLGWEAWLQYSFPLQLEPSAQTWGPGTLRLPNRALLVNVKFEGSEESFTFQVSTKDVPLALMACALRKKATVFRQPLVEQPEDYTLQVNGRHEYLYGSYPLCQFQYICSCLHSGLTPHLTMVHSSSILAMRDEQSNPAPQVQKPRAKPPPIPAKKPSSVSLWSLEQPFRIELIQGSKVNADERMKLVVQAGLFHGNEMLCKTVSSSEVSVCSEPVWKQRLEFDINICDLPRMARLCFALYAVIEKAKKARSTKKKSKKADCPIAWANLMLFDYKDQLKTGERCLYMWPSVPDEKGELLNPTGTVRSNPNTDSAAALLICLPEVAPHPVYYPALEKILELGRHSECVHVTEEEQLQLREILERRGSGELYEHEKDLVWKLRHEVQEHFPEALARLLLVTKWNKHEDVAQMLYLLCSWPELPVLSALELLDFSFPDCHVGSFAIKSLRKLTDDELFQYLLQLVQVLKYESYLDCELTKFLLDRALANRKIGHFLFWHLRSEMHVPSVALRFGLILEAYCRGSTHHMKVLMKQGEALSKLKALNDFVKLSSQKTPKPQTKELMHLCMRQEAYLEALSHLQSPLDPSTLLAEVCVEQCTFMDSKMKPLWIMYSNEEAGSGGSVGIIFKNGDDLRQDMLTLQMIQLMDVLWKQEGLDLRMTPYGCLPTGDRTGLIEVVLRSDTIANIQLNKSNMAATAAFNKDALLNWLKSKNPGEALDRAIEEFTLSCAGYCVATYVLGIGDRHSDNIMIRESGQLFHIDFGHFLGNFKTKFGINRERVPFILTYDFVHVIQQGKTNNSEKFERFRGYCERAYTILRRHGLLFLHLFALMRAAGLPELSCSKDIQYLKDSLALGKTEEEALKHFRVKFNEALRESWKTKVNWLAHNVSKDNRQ
T4 sequence (P27986 whole entry partner): as the sequence (P27986 whole entry partner) above
Put plainly: In vitro determination of the PI3K enzyme inhibitory activity in the cell free assay (ADP-Glo Kinase Assay), PI3Kδ. The following applies: ATP 80 μM, read-out: PI3K delta inhibition. The method, boiled down: as §1

T3 sequence (P48736 whole entry): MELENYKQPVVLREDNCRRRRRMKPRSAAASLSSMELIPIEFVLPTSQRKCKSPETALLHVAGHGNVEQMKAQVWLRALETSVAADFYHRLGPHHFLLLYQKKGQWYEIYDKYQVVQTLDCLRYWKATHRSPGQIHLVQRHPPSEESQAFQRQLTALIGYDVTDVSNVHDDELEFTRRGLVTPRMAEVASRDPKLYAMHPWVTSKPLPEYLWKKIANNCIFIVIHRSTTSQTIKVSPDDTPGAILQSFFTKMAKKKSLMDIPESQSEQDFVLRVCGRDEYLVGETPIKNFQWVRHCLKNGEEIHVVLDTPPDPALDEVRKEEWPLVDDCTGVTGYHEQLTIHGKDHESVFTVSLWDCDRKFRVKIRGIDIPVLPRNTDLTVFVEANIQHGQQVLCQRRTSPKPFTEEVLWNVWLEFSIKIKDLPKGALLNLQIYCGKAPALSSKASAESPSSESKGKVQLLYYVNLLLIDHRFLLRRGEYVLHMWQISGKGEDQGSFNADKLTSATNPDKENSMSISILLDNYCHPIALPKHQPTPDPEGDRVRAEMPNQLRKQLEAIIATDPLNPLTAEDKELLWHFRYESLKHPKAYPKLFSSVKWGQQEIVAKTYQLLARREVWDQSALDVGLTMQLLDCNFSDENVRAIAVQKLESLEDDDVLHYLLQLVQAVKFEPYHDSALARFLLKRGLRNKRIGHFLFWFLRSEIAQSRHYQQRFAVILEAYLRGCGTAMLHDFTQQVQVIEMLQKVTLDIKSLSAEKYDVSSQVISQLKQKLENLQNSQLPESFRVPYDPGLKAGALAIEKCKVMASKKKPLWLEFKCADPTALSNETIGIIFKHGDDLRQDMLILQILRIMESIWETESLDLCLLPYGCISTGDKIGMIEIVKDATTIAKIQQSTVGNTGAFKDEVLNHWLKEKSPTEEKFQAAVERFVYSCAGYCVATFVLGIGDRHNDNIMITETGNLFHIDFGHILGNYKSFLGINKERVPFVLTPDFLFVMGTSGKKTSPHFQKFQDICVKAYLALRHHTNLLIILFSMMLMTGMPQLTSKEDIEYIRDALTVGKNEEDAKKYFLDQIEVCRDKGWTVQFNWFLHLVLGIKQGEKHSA
T1 sequence (P42336 whole entry): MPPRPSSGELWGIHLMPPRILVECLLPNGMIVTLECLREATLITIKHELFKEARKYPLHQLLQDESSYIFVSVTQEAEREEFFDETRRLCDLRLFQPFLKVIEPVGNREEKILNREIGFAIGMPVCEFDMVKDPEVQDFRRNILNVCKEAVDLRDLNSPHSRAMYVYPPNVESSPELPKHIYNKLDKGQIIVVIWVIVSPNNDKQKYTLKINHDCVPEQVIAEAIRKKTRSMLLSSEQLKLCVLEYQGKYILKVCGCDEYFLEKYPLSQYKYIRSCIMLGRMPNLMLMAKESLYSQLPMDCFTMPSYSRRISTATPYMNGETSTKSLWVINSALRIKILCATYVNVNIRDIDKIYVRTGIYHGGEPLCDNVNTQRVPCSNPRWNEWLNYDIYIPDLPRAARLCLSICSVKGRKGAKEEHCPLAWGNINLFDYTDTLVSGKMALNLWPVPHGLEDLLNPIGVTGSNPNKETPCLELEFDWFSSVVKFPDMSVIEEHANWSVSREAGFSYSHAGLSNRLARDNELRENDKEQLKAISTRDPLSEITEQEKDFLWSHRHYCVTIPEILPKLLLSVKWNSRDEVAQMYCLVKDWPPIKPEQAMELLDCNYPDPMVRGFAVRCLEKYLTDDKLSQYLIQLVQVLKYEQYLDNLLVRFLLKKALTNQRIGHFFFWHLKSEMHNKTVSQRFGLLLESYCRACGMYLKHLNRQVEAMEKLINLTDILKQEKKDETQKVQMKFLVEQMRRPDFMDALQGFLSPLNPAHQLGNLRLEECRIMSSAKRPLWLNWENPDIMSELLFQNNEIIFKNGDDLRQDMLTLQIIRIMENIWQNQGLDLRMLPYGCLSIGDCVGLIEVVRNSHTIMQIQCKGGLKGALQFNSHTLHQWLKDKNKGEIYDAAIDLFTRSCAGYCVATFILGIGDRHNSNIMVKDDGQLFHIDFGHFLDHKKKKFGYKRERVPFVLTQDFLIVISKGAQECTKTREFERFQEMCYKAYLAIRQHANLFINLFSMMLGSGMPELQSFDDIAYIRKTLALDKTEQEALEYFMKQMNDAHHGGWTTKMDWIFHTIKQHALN
T1 sequence (P27986 whole entry partner): as the sequence (P27986 whole entry partner) above

With `CC(c1cc2ccccn2c1CN1CCC2(CCCN(C)C2)CC1)n1nc(-c2cc(O)cc(F)c2)c2c(N)ncnc21` (centres unmarked) [Example 142, 3-(4-amino-1-{1-[3-({2-methyl-2,9-diazaspiro[5.5]-undecan-9-yl}methyl)indolizin-2-yl]ethyl}-1H-pyrazolo[3,4-d]-pyrimidin-3-yl)-5-fluorophenol], the IC50 on PI3Kα is > 1 µM; at PI3Kβ it was > 1 µM; at PI3Kγ, 0.01 to 1 µM; on PI3Kδ, 0.01 to 1 µM.

As to `CC(c1cc2ccccn2c1CN1CCC2(CCN(C)CC2)CC1)n1nc(-c2cc(O)cc(F)c2)c2c(N)ncnc21` (centres unmarked) [Example 143, 3-(4-amino-1-{1-[3-({9-methyl-3,9-diazaspiro[5.5]undecan-3-yl}methyl)indolizin-2-yl]ethyl}-1H-pyrazolo[3,4-d]pyrimidin-3-yl)-5-fluorophenol], the IC50 on PI3Kα is 0.01 to 1 µM; at PI3Kβ, 0.01 to 1 µM; at PI3Kγ it was 0.01 to 1 µM; on PI3Kδ, < 0.01 µM.

On to `CC(c1cc2ccccn2c1CN1CC2(CCN(C)CC2)C1)n1nc(-c2cc(O)cc(F)c2)c2c(N)ncnc21` (centres unmarked) [Example 144, 3-(4-amino-1-{1-[3-({7-methyl-2,7-diazaspiro[3.5]nonan-2-yl}methyl)indolizin-2-yl]ethyl}-1H-pyrazolo[3,4-d]pyrimidin-3-yl)-5-fluorophenol], for which the IC50 on PI3Kα, on PI3Kβ, on PI3Kγ and on PI3Kδ was 0.01 to 1 µM each time.

As for `CC(c1cc2ccccn2c1CN1C[C@H]2CN(C)C[C@H]2C1)n1nc(-c2cc(O)cc(F)c2)c2c(N)ncnc21` (stereo partly drawn) [Example 145, 3-{1-[1-(3-{[(3aR,6aS)-5-methyl-octahydropyrrolo[3,4-c]pyrrol-2-yl]methyl}indolizin-2-yl)ethyl]-4-amino-1H-pyrazolo[3,4-d]pyrimidin-3-yl}-5-fluorophenol], the IC50 on PI3Kα, on PI3Kβ, on PI3Kγ and at PI3Kδ was 0.01 to 1 µM throughout.

Regarding `CC(c1cc2ccccn2c1-c1ccn(CCN(C)C)n1)n1nc(-c2cc(O)cc(F)c2)c2c(N)ncnc21` (centres unmarked) [Example 147, 3-{4-amino-1-[1-(3-{1-[2-(dimethylamino)-ethyl]-1H-pyrazol-3-yl}indolizin-2-yl)-ethyl]-1H-pyrazolo[3,4-d]pyrimidin-3-yl}-5-fluorophenol], the IC50 on PI3Kα is 0.01 to 1 µM; at PI3Kβ, 0.01 to 1 µM; at PI3Kγ, > 1 µM; on PI3Kδ, < 0.01 µM.

As to `CC(c1cc2ccccn2c1-c1ccn(CCN2CCN(C)CC2)n1)n1nc(-c2cc(O)cc(F)c2)c2c(N)ncnc21` (centres unmarked) [Example 148, 3-{4-amino-1-[1-(3-{1-[2-(4-methylpiperazin-1-yl)ethyl]-1H-pyrazol-3-yl}indolizin-2-yl)-ethyl]-1H-pyrazolo[3,4-d]pyrimidin-3-yl}-5-fluorophenol], the IC50 at PI3Kα was 0.01 to 1 µM; on PI3Kβ it was 0.01 to 1 µM; on PI3Kγ, 0.01 to 1 µM; on PI3Kδ, < 0.01 µM.

`CC(c1cc2ccccn2c1-c1ccn(CCN(CCO)CCO)n1)n1nc(-c2cc(O)cc(F)c2)c2c(N)ncnc21` (centres unmarked) [Example 149, 3-(4-amino-1-{1-[3-(1-{2-[bis(2-hydroxyethyl)amino]ethyl}-1H-pyrazol-3-yl)indolizin-2-yl]ethyl}-1H-pyrazolo[3,4-d]pyrimidin-3-yl)-5-fluorophenol]: the IC50 at PI3Kα is > 1 µM; on PI3Kβ it was 0.01 to 1 µM; at PI3Kγ it was 0.01 to 1 µM; on PI3Kδ, < 0.01 µM.

`CC(c1cc2ccccn2c1-c1ccn(CCN2CCOCC2)n1)n1nc(-c2cc(O)cc(F)c2)c2c(N)ncnc21` (centres unmarked) [Example 150, 3-{4-amino-1-[1-(3-{1-[2-(morpholin-4-yl)ethyl]-1H-pyrazol-3-yl}indolizin-2-yl)ethyl]-1H-pyrazolo-[3,4-d]pyrimidin-3-yl}-5-fluorophenol]: the IC50 on PI3Kα was > 1 µM; on PI3Kβ it was 0.01 to 1 µM; on PI3Kγ, 0.01 to 1 µM; at PI3Kδ it was < 0.01 µM.
